The test system of data set [1] is T84 cells (histamine-stimulated chloride ion secretion). The data set can be described thus: Histamine-stimulated chloride ion secretion (short circuit current) in T84 monolayers. Format: cell-based, human. As to the method:
Enantiomerically pure 1,2-Bt2 -Ins(3,4,5,6)P4 /AM was synthesized to determine if 1,2-Bt2 -Ins(3,4,5,6)P4 /AM mediates the uncoupling of chloride ion secretion from intracellular calcium concentrations. […] After 7-10 days of incubation on SNAP-WELLS (Corning Costar; Cambridge, Mass.), monolayers had formed tight junctions. Cell monolayers were preincubated with 100, 200 or 400 μM Bt2 -Ins(3,4,5,6)P4 /AM for 30 min prior to mounting. After an additional 30 min, 0.1 mM histamine was added and chloride ion secretion was monitored. Chloride ion secretion was measured as short circuit current (Isc) across T84 monolayers grown to confluence and mounted in Ussing chambers equipped with voltage clamps (Physiologic Instruments; San Diego, Calif.). Data was acquired and analyzed using "Acquire and Analyze" software (Physiologic Instruments).
(§1) Initial studies were directed towards understanding structural determinants of Ins(3,4,5,6)P4 responsible for the inhibitory effect on calcium-mediated chloride ion secretion. A series of cell permeable inositol polyphosphate derivatives were synthesized. These derivatives contained either one or two non-hydrolyzable chemical groups on the 1, 2 or 3 position. T84 monolayers were preincubated for 30 minutes with 200 μM of 2-Bt-1-Me-Ins(3,4,5,6)P4 /AM, Me2 -Ins(3,4,5,6)P4 /AM, Me2 -Ins(1,4,5,6)P4 /AM or 2-Bt-3-Me-Ins(1,4,5,6)P4 /AM.
(§2) Following the incubation, cells were mounted in Ussing chambers. Calcium-mediated chloride ion secretion was stimulated with histamine (10^-4 M). Control values were the response to histamine in coincubated monolayers. Data are represented as mean peak ΔIsc ±SEM, expressed as % control for 8 to 10 experiments. Significant differences were identified using the Student's two-tailed t test.

Data set [2] relates to T84 cells (cyclic AMP-mediated chloride ion secretion). Description: Dibutyryl cyclic AMP acetoxymethyl ester stimulated chloride ion secretion in T84 cells. Format: cell-based, human. As to the method:
Enantiomerically pure 1,2-Bt2 -Ins(3,4,5,6)P4 /AM was synthesized to determine if 1,2-Bt2 -Ins(3,4,5,6)P4 /AM mediates the uncoupling of chloride ion secretion from intracellular calcium concentrations. T84 cells (passages 18-48) were maintained as described previously (Weymer, et al., J. Clin. Invest. 76:1828 (1985)), which is incorporated herein by reference. After 7-10 days of incubation on SNAP-WELLS (Corning Costar; Cambridge, Mass.), monolayers had formed tight junctions. Cell monolayers were preincubated with 100, 200 or 400 μM Bt2 -Ins(3,4,5,6)P4 /AM for 30 min prior to mounting. […] Chloride ion secretion was measured as short circuit current (Isc) across T84 monolayers grown to confluence and mounted in Ussing chambers equipped with voltage clamps (Physiologic Instruments; San Diego, Calif.). Data was acquired and analyzed using "Acquire and Analyze" software (Physiologic Instruments).
[…]; mean±SEM; n=4).

For data set [3], the system named is colonic epithelial T84 cells (calcium-mediated chloride ion secretion). The data set can be described thus: Inhibition of calcium-mediated chloride ion secretion (Table I summary). Format: cell-based, human. Particulars: pathway: Ins (3,4,5,6)P4. An excerpt: The invention provides compounds that are agonists or antagonists of inositol polyphosphates. Inositol polyphosphate derivatives can function as inositol polyphosphate agonists and antagonists. The effects of compounds of the invention on Ins(3,4,5,6)P4 - and PtdInsP3 -mediated inhibition of calcium-mediated chloride ion secretion are described in the Examples and summarized in Table I.
Enantiomerically pure 1,2-Bt2 -Ins(3,4,5,6)P4 /AM was synthesized to determine if 1,2-Bt2 -Ins(3,4,5,6)P4 /AM mediates the uncoupling of chloride ion secretion from intracellular calcium concentrations. T84 cells (passages 18-48) were maintained as described previously (Weymer, et al., J. Clin. Invest. 76:1828 (1985)), which is incorporated herein by reference. After 7-10 days of incubation on SNAP-WELLS (Corning Costar; Cambridge, Mass.), monolayers had formed tight junctions. Cell monolayers were preincubated with 100, 200 or 400 μM Bt2 -Ins(3,4,5,6)P4 /AM for 30 min prior to mounting. After an additional 30 min, 0.1 mM histamine was added and chloride ion secretion was monitored. Chloride ion secretion was measured as short circuit current (Isc) across T84 monolayers grown to confluence and mounted in Ussing chambers equipped with voltage clamps (Physiologic Instruments; San Diego, Calif.). Data was acquired and analyzed using "Acquire and Analyze" software (Physiologic Instruments).

The subject of data set [4] is Ins(1,3,4)P3-5/6-kinase. The note with it: Vajanaphanich et al. 1994; cited from earlier work.
Data set [5] has as its system rabbit colon (calcium-mediated chloride ion secretion). The data set can be described thus: Chloride ion secretion in rabbit colonic epithelia (Ussing chambers). As to the method: The results obtained above using T84 colonic epithelial cells in culture were confirmed using a rabbit colon model system (Frizzell et al., J. Membrane Biol. 27:297 (1976); and Frizell and Schultz, Int. Rev. Physiol. 19:205 (1979)), each of which is incorporated herein by reference. Segments of rabbit colon were excised and used as a source of rabbit colonic epithelia. Briefly, segments of rabbit colon were washed with Ringers solution containing 141 mM Na^+, 5 mM K^+, 1.2 mM Ca^2+, 1.2 mM Mg^2+, 122 mM Cl^-, 25 mM HCO3, 1.6 mM HPO4, 0.4 mM H2 PO4 and 10 mM glucose. At 37° C., this solution is pH 7.4 when gassed with 5% CO2 and 95% O2. Epithelium was stripped of the underlying muscle layer and mounted in modified SNAP WELLS (Frizzell et al., supra, 1976). Epithelia were preincubated with 200 μM 1,2-Bt2 -Ins(3,4,5,6)P4 /AM for 30 min at 37° C. and mounted in Ussing chambers. Short circuit current, conductance and resistance were measured at 4 sec intervals as described in Example I. Peak Isc was 50.9% ±10.4 of controls which were incubated with vehicle (FIG. 2; mean±SEM, n=3; p<0.05 by Student's two tailed t-test). The % control shown in FIG. 2 represents ΔIsc over peak Isc in control monolayers stimulated with histamine.

Data set [6] concerns intracellular calcium. Description: Intracellular calcium concentration in treated cells. It counts as cell-based, human. The protocol:
Elevation in intracellular calcium concentration leads to increased chloride ion secretion. To ensure that none of the effects of the inositol polyphosphate derivatives on chloride ion secretion were due to changes in calcium levels, the concentration of intracellular calcium was measured in cells treated with the inositol polyphosphate derivatives. […] None of the compounds tested altered intracellular calcium levels by themselves or modified levels of intracellular calcium stimulated with carbachol or thapsigargin. Therefore, the effects of inositol polyphosphate derivatives on chloride ion secretion are not due to any effect on intracellular calcium concentrations.
(In general: Calcium assays in cells follow changes in intracellular calcium, usually with a dye or a luminescent sensor.)

Data set [7] relates to T84 colonic epithelial cells (carbachol-mediated inhibition of chloride ion secretion). Description: Reversal of carbachol-mediated inhibition of thapsigargin-stimulated chloride ion secretion in T84 cells. Format: cell-based, human. Particulars: carbachol 10^-4 M, thapsigargin 1 μM. The protocol:
T84 colonic epithelial cells were treated with D,L-1,2-cyclohexylidene-Ins(3,4,5,6)P4 /AM, 1-Bu-2-Bt-Ins(3,4,5,6)P4 /AM, Bu2 -Ins(3,4,5,6)P4 /AM, 3-Bt-2-Bu-Ins(1,4,5,6)P4 /AM, Bu2 -Ins(1,4,5,6)P4 /AM, 1-Bt-2-Bu-Ins(3,4,5,6)P4 /AM or 3-Bu-2-Bt-Ins(1,4,5,6)P4 /AM and the short circuit current was measured.
One set of cells was preincubated for 30 min with an inositol polyphosphate derivative. The other two sets of cells were preincubated with vehicle, alone. Measurement of Isc was initiated at time 0. At 5 min, carbachol (10^-4 M) was added to one set of cells preincubated with vehicle alone (designated "Carbachol" in FIG. 5) and to the set of cells preincubated with inositol polyphosphate derivatives (designated "Carbachol+D,L-1,2-Cyclohexylidene-Ins(3,4,5,6)P4 /AM" in FIG. 5A). At 30 min, 1 μM thapsigargin was added. Data were collected for n=4 to 6 experiments.

Data set [8] deals with T84 cells (Ins(3,4,5,6)P4 inhibition of histamine-stimulated chloride ion secretion). Description: Reversal of Bt2 -Ins(3,4,5,6)P4 /AM inhibition of histamine-stimulated chloride ion secretion in T84 cells. It counts as cell-based, human. The note with it: T84 cells, histamine-stimulated. The protocol: as §1, §2
T84 cells were preincubated with cell permeant inositol polyphosphates as described above to determine if any of the inositol polyphosphate derivatives function as antagonists of Ins(3,4,5,6)P4 inhibition of calcium-mediated chloride ion secretion. Following histamine stimulation, short circuit current was measured. […] The % control shown in FIG. 3 represents ΔIsc over peak Isc in control monolayers stimulated with histamine. However, […]

Data set [9] deals with phosphatidylinositol 3-kinase (PI 3-kinase). The note with it: Uribe et al. 1996b; cited from earlier work.
Data set [10] relates to T84 cells (EGF induced inhibition of chloride ion secretion). The note with it: cited from earlier work.
In data set [11] the test system is Ins(3,4,5,6)P4. Particulars: background; cited from earlier work.
Data set [12] deals with T84 cells (EGF induced inhibition of chloride ion secretion). Description: EGF induced inhibition of carbachol-stimulated chloride ion secretion in T84 cells and its reversal. Format: cell-based, human. Particulars: EGF 16.3 nM, carbachol 100 μM. The protocol:
After an additional 15 min incubation, 100 μM carbachol was added to acutely elevate intracellular calcium concentrations. Controls also were stimulated with carbachol but were not pretreated with EGF. Data are the means of duplicate measurements from a representative experiment (total of three experiments).

Entries after “also recorded” stand apart in the source; their conditions may differ.

`CCCC(=O)O[C@@H]1[C@H](OC(=O)CCC)[C@H](OP(=O)(OCOC(C)=O)OCOC(C)=O)[C@@H](OP(=O)(OCOC(C)=O)OCOC(C)=O)[C@H](OP(=O)(OCOC(C)=O)OCOC(C)=O)[C@H]1OP(=O)(OCOC(C)=O)OCOC(C)=O` [Bt2 -Ins(3,4,5,6)P4 /AM, 1,2-di-O-butyryl-myo-inositol 3,4,5,6-TKphosphate oct (acetoxymethyl) ester]: the activity at 100 µM in data set [1] (Homo sapiens, T84, 0.5 h, 100 μM compound, mean ± SEM, read-out: Peak ΔIsc (% Control) after histamine (100 μM)) was found to be 75.1 ± 7.4%. Besides, the activity at 200 µM in data set [1] (Homo sapiens, T84, 0.5 h, 200 μM compound alone, mean ± SEM, read-out: Peak ΔIsc (% Control) after histamine (100 μM)) worked out at 57.2 ± 15.1%; in data set [5] (Oryctolagus cuniculus, 0.5 h, 200 μM, 30 min at 37° C., mean±SEM, n=3, p<0.05, read-out: Peak Isc, of controls), 50.9%. For the same compound, in [1] (Homo sapiens, T84, 0.5 h, 400 μM compound alone, mean ± SEM, read-out: Peak ΔIsc (% Control) after histamine (100 μM)), the activity at 400 µM stood at 69.3 ± 8.7%. The “effect on histamine-stimulated / calcium-mediated chloride ion secretion (in words)” value in data set [1] (T84 cells) is “inhibit calcium-mediated chloride secretion; also recorded: inhibited chloride ion secretion in response to increased concentrations of intracellular calcium; also recorded: decreased histamine-stimulated chloride ion secretion relative to control cells”. Moreover, the “concentration for maximum decrease of histamine-stimulated chloride ion secretion” value in [1] (extracellular, no further decrease with 400 μM) worked out at 200 µM. Besides, in data set [2], the “inhibition of dibutyryl cyclic AMP acetoxymethyl ester stimulated chloride ion secretion (in words)” value is “no inhibition”. The “peak ΔIsc, dibutyryl cyclic AMP acetoxymethyl ester stimulated chloride ion secretion” value in [2] (mean±SEM, n=4) is recorded as 96.3±9.1 % or control. In [3], the “Mechanism and Inositol Polyphosphate Pathway Affected” value is on record as “Agonist of”. Moreover, the effective intracellular concentration entry in data set [4] is listed as “about 4 μM”. For the same compound, in data set [5] (FIG. 2 / Example II), the “effect on chloride ion secretion in rabbit colon (in words)” value is “inhibition of chloride ion secretion; also recorded: decreases chloride ion secretion in rabbit colon”. The “effect on intracellular calcium (in words)” value in [6] (alone) is recorded as “does not increase intracellular calcium”. Further, the “effect on calcium response to thapsigargin or carbachol (in words)” value in data set [6] (thapsigargin or carbachol stimulated) is “does not affect calcium response to thapsigargin”.

Turning to `CCCCO[C@@H]1[C@H](OCCCC)[C@H](OP(=O)(OCOC(C)=O)OCOC(C)=O)[C@@H](OP(=O)(OCOC(C)=O)OCOC(C)=O)[C@H](OP(=O)(OCOC(C)=O)OCOC(C)=O)[C@H]1OP(=O)(OCOC(C)=O)OCOC(C)=O` [Bu2 -Ins(3,4,5,6)P4 /AM, D-1,2-Di-O-butyl-myo-inositol 3,4,5,6-tetrakisphosphate octakis(acetozymethyl)ester], in data set [3], the “Mechanism and Inositol Polyphosphate Pathway Affected” value is “Antagonist of”. For the same compound, in data set [7], the “reversal of carbachol-mediated inhibition of chloride ion secretion (in words)” value is “enhanced chloride ion secretion; also recorded: reversed the carbachol-mediated inhibition of chloride ion secretion stimulated by thapsigargin”. Further, in data set [8], the “reversal of the inhibitory effect of Bt2 -Ins(3,4,5,6)P4 /AM / Ins(3,4,5,6)P4-mediated inhibition (in words)” value was “reversed Ins(3,4,5,6)P4 -mediated inhibition of chloride ion secretion”.

For `COC[C@H]1OC(=O)c2coc3c2[C@@]1(C)C1=C(C3=O)[C@@H]2CCC(=O)[C@@]2(C)C[C@H]1OC(C)=O` [Wortmannin, reference compound], the “effect on formation of PI 3-kinase products (in words)” value in data set [9] is “blocked formation of PtdInsP3 and PtdInsP2”. In data set [10] (Uribe et al. 1996b), the “reversal of EGF induced inhibition of chloride ion secretion (in words)” value is listed as “reversed the EGF induced inhibition of chloride ion secretion”.

In the case of EGF: epidermal growth factor (EGF), the “effect on formation of PI 3-kinase products (in words)” value in data set [9] was “stimulated an increase in levels of the PI 3-kinase products”. In addition, the “increase in Ins(3,4,5,6)P4 levels” value in data set [11] is listed as 1.7 -fold. The “effect on carbachol-stimulated chloride ion secretion / EGF induced inhibition (in words)” value in data set [12] is recorded as “decreased chloride ion secretion; also recorded: inhibited carbachol stimulated chloride ion secretion”. Also, the “effect on calcium-mediated chloride ion secretion induced by carbachol and thapsigargin (in words)” value in data set [10] (Uribe et al. 1996) is listed as “inhibits calcium-mediated chloride ion secretion”.

The values are drawn from patent US5880099A, “Inositol polyphosphates and methods of using same” (The Regents of the University of California, priority 1997, dated 1999).
